Where a name gives a salt, the structure may show the parent alone. Read-outs that look alike come from different tables or passages of the source.
Legend:
[1] = tested on: Burkholderia cepacia ATCC 25416; experiment: MIC determination by microbroth dilution; format: cell-based; conditions: for MIC: ATCC25416, read-out: MIC B. cepcia
E. coli K12 = experiment: MIC determination by microbroth dilution; format: cell-based, Escherichia coli; conditions: for MIC: Escherichia coli, K12
E. coli ribosomes = format: biochemical; conditions: for relative inhibitory activity on luciferase production: tested at 0.66 and 6.6 μM, FIG. 5; for IC50, 50% inhibition of luciferase biosynthesis in S30 assay: E. coli S30 transcription/translation assay
[2] = tested on: Klebsiella pneumoniae ATCC 33495; experiment: MIC determination by microbroth dilution; format: cell-based; conditions: for MIC: ATCC33495
[3] = tested on: Acinetobacter baumannii ATCC 19606; experiment: MIC determination by microbroth dilution; format: cell-based; conditions: for MIC: ATCC19606
[4] = tested on: Proteus mirabilis ATCC 25933; experiment: MIC determination by microbroth dilution; format: cell-based; conditions: for MIC: ATCC25933
M. tuberculosis H37Rv = experiment: MIC determination by microbroth dilution, anti-tuberculosis activity; format: cell-based, Mycobacterium tuberculosis
[5] = tested on: Strep. pyogenes ATCC 700294; experiment: MIC determination by microbroth dilution; format: cell-based, Streptococcus pyogenes; conditions: for MIC: Streptococcus pyogenes, ATCC700294, read-out: MIC S. pyogenes
[6] = tested on: Strenotrophomonas maltophilia ATCC 13637; experiment: MIC determination by microbroth dilution; format: cell-based
B. anthracis Sterne 34F2 = experiment: microbe, parasite or virus in culture; format: cell-based, Bacillus anthracis; conditions: for MIC: Bacillus anthracis, STERNE34F2, read-out: MIC B. anthracis 34F2
[7] = tested on: Proteus vulgaris ATCC 33420; experiment: MIC determination by microbroth dilution; format: cell-based; conditions: for MIC: ATCC33420
[8] = tested on: Strep. pneumoniae DAW27 or strain R6; experiment: MIC determination by microbroth dilution; format: cell-based, Streptococcus pneumoniae; conditions: Strep. pneumoniae DAW27 or strain R6 (for 1443-1544); for MIC: Streptococcus pneumoniae, read-out: MIC S. pneumoniae
E. faecalis ATCC 33186 = experiment: MIC determination by microbroth dilution; format: cell-based, Enterococcus faecalis; conditions: for MIC: Enterococcus faecalis, ATCC33186
[9] = tested on: S. aureus 8325 or strain ATCC 29213; experiment: MIC determination by microbroth dilution; format: cell-based, Staphylococcus aureus; conditions: S. aureus 8325 or strain ATCC 29213 (for 1471-1544); for MIC: Staphylococcus aureus, ATCC29213
E. coli K12 ΔtolC = experiment: microbe, parasite or virus in culture; format: cell-based; conditions: for MIC: Escherichia coli, read-out: MIC E. coli K12 ΔtolC
P. aeruginosa PAO1 = experiment: MIC determination by microbroth dilution; format: cell-based, Pseudomonas aeruginosa; conditions: for MIC: Pseudomonas aeruginosa
[10] = Mycobacterium tuberculosis, H37RV, 168 h, read-out: MIC

Molecule	relative inhibitory activity on luciferase production (E. coli ribosomes)	MIC [1] [µg/mL]	MIC (E. coli K12) [µg/mL]	IC50, 50% inhibition of luciferase biosynthesis in S30 assay (E. coli ribosomes) [µg/mL]	MIC [2] [µg/mL]	MIC [3] [µg/mL]	MIC [4] [µg/mL]	MIC (M. tuberculosis H37Rv; [10]) [µg/mL]	MIC [5] [µg/mL]	MIC [6] [µg/mL]	MIC (B. anthracis Sterne 34F2) [µg/mL]	MIC [7] [µg/mL]	MIC [8] [µg/mL]	MIC (E. faecalis ATCC 33186) [µg/mL]	MIC [9] [µg/mL]	MIC (E. coli K12 ΔtolC) [µg/mL]	MIC (P. aeruginosa PAO1) [µg/mL]	further results
3′-Dihydro-3′-deoxy-4(R)-dodecylamino spectinomycin Trihydrochloride [Compound 1421]	less active than 1329	–	–	–	–	–	–	–	–	–	–	–	–	–	–	–	–	MIC B. cepcia [1]: 50 µg/mL; MIC E. coli K12 (E. coli K12; E. coli K12): 200 µg/mL; MIC K. pneu. [2]: >200 µg/mL; MIC A. bau. [3]: 50 µg/mL; MIC P. mir [4]: >200 µg/mL; MIC (M. tuberculosis H37Rv): 25 µg/mL; MIC S. pyogenes [5]: 50 µg/mL; MIC S. mal [6]: 12.5 µg/mL; MIC B. anthracis 34F2 (B. anthracis Sterne 34F2): 200 µg/mL; MIC P. vul [7]: >200 µg/mL; MIC S. pneumoniae [8]: 200 µg/mL; MIC E. faecalis (E. faecalis ATCC 33186): 200 µg/mL; MIC S. aureus [9]: 200 µg/mL; MIC E. coli K12 ΔtolC (E. coli K12 ΔtolC; tolC knockout strain, defective multi-drug efflux pump): 50 µg/mL; MIC P. aer. (P. aeruginosa PAO1): >200 µg/mL
CN[C@@H]1[C@H](O)[C@H](NC)C2O[C@]3(O)C(OC2[C@H]1O)O[C@H](C)C[C@H]3NC(=O)Cc1cscn1 (stereo partly drawn) [Compound 1443, 3′-Dihydro-3′-deoxy-4(R)-(thiazol-4-yl)acetylamino spectinomycin trihydrobromide]	–	> 200	100	0.29	100	> 200	> 200	1.6	6.25	> 200	1.6	> 200	12.5	50	50	200	> 200	–
CN[C@@H]1[C@H](O)[C@H](NC)C2O[C@]3(O)C(OC2[C@H]1O)O[C@H](C)C[C@H]3NC(=O)CNC(C)(C)C (stereo partly drawn) [Compound 1351, 3′-Dihydro-3′-deoxy-4(R)-(tert-butylamino)-acetylamino spectinomycin Dihydrochloride]	next most active	> 200	> 200	0.22	200	> 200	> 200	25	100	50	50	> 200	200	> 200	200	50	200	–
CN[C@@H]1[C@H](O)[C@H](NC)C2O[C@]3(O)C(OC2[C@H]1O)O[C@H](C)C[C@H]3NC(=O)Cc1cccc(F)c1F (stereo partly drawn) [Compound 1447, 3′-Dihydro-3′-deoxy-4(R)-(2,3-difluoro-phenyl)acetylamino spectinomycin Dihydrochloride]	–	> 200	200	0.22	200	> 200	> 200	50	6.25	> 200	100	> 200	6.25	100	> 200	> 200	> 200	–
CN[C@@H]1[C@H](O)[C@H](NC)C2O[C@]3(O)C(OC2[C@H]1O)O[C@H](C)C[C@H]3NC(=O)Cc1ccc(F)cn1 (stereo partly drawn) [Compound 1445, 3′-Dihydro-3′-deoxy-4(R)-(5-fluoropyridin-2-yl)acetylamino spectinomycin trihydrobromide]	–	> 200	100	0.25	100	> 200	> 200	0.4	12.5	> 200	25	> 200	12.5	25	25	200	> 200	–
